Reference: PMC5626781, “A Potent Tartrate Resistant Acid Phosphatase Inhibitor to Study the Function of TRAP in Alveolar Macrophages” (Scientific Reports, 2017)

How the values were obtained:
[1] = target: T1, TRAP activity in lysates of murine MPI alveolar macrophages (Mus musculus, UniProt Q05117); assay: TRAP activity assay on MPI alveolar macrophage lysates; type: biochemical; conditions: cell lysates of murine MPI alveolar macrophages; mean ± standard error, n = 3
T1 construct: endogenous in cells; host or cells: murine MPI alveolar-like macrophages
T1 sequence (Q05117 23-327): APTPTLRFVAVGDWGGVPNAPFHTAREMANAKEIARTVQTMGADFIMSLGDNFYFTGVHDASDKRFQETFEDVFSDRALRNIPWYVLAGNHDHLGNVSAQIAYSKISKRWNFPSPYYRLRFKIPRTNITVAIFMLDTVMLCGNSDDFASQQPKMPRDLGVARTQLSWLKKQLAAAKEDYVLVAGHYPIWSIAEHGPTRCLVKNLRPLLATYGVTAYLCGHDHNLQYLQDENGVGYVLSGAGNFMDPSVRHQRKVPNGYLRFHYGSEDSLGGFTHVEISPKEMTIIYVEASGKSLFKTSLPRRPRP
Method: Mouse alveolar macrophage lysates were obtained by resuspending 500.000 MPI macrophages in 300 μl acetate buffer. Human lung lysates from COPD patients were used to test the inhibitor on human TRAP present in lung tissue. Lysates from in total 18 COPD patients were pooled (see Supplementary Table S3 for patient characteristics).
AubipyOMe was tested in the range 0–40 μM with MPI cell lysates or pooled lung tissue lysates from COPD patients using a TRAP activity assay. Lysates were incubated at 37 °C for 30 min in the presence of PNPP solution (1:1 ratio). 1M NaOH was added to stop the reaction and absorption was measured at 410 nm with 490 nm as a reference value.
The inhibitory effects of gold compounds were calculated as the ratio of absorbance between the treated and untreated wells. The IC50 values were calculated using nonlinear curve fitting with a variable slope in Graphpad Prism 6 (Graphpad Software, la Jolla, USA). An average IC50 of three independent experiments was calculated.
Identification of TRAP inhibitors […]
Inhibitor dilutions were prepared in acetate buffer from freshly prepared stock solutions (10 mM in DMSO). […] To stop the reaction, 1M NaOH was added and absorption at 410 nm, with 490 nm as a reference value, was measured using a spectrophotometer. […]
The inhibitory effects of gold compounds were calculated as the ratio of absorbance between the treated and untreated wells. […]

RAW264.7 macrophages [2] = assay: Transwell migration, osteopontin-coated membrane; type: cell-based, mouse; conditions: AubipyOMe 80 nM, 5-PNA 100 μM
Method: (§1) Migration of RAW264.7 macrophages was assessed using a transwell-culturing system with inserts (Sigma-Aldrich) coated with osteopontin (10 μg/ml, R&D). Bovine collagen-coated inserts (10 μg/ml, Advanced Biometrix, Carlsbad, USA) were used as matrix control. Cells were incubated with or without RANKL (200 ng/ml) for 72 hours to induce TRAP activity or not[75], in the presence or absence of AubipyOMe (80 nM) in quadruplicate. The previously described TRAP inhibitor 5-PNA (100 μM) was used as selective positive control for TRAP inhibition[15],[23]. The number of cells migrated to the lower well, including dead cells, was calculated relative to control cells and individual experiments were done at least six times. […]
(§2) Transwell experiment to assess macrophage migration
Migration of RAW264.7 macrophages was assessed using a transwell-culturing system with inserts (Sigma-Aldrich) coated with osteopontin (10 µg/ml, R&D). Bovine collagen-coated inserts (Advanced Biometrix, Carlsbad, USA) were used as a matrix control. RAW264.7 macrophages, pre-stimulated with 200 ng/ml RANKL for 72h to induce TRAP activity16, were seeded on 8 µm pore inserts coated with osteopontin (10 µg/ml, 250,000 cells/well) or collagen (10 μg/ml, 250,000 cells/well). Cells were cultured for 16h in the presence or absence of AubipyOMe (80 nM) in quadruplicate. The previously described TRAP inhibitor 5-PNA (100 µM) was used as selective positive control for TRAP inhibition12,17. The number of cells migrated to the lower well, including dead cells, was calculated relative to control cells and individual experiments were done at least six times. […]

RAW264.7 macrophages [3] = assay: Transwell migration, collagen-coated membrane; type: cell-based, mouse; conditions: AubipyOMe 80 nM, with or without RANKL 200 ng/ml
Method: as §1, §2
Migration of RAW264.7 macrophages was assessed using a transwell-culturing system with inserts (Sigma-Aldrich) coated with osteopontin (10 µg/ml, R&D). Bovine collagen-coated inserts (Advanced Biometrix, Carlsbad, USA) were used as a matrix control. […] The number of cells migrated to the lower well, including dead cells, was calculated relative to control cells and individual experiments were done at least six times. […]

other proteins = tested on: other proteins; design: method as in PMID 20162197, PMID 21370912; conditions: compared to TRAP isoforms; cited from earlier work

## COc1ccnc(-c2cc(OC)ccn2)c1.F[P-](F)(F)(F)(F)F.[Cl][Au+][Cl] [AubipyOMe, [Au(4,4′-dimethoxy-2,2′-bipyridine)Cl2][PF6]]
[1]
  IC50: 1700 ± 400 nM
RAW264.7 macrophages [2]; RANKL 200 ng/ml 72 h, versus RANKL alone
  migration of RANKL-pretreated macrophages through osteopontin-coated membrane: significantly less migration
RAW264.7 macrophages [2]; no RANKL
  migration through osteopontin-coated membrane, inhibitor alone: did not affect migration
RAW264.7 macrophages [3]
  migration through collagen-coated membrane: no effect
Other proteins
  inhibitory effects on other proteins: extremely moderate
